Assays:
Assay in all cases: relative viability (nuclei count vs DMSO), 5 days (fraction); higher = more cells survive
[1] = compound: C1=CC(=CC=C1C2=CC(=C(S2)NC(=O)N)C(=O)N)F [TPCA-1] + Cc1nc(NC(=O)N2CCC[C@H]2C(N)=O)sc1-c1ccnc(C(C)(C)C(F)(F)F)c1 [Alpelisib] (partner 2 µM)
Outline: (§1)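 Relative viability equals treated-well nuclei counts divided by vehicle-well nuclei counts. Counts came from 4× images of lung cancer cell lines grown in 1536-well plates for 5 days after pin-tool dosing on the day after seeding. Dosing used one drug alone or a fixed anchor-drug dose plus five library-drug doses (not always all listed) in √10 steps, and values are medians of duplicate plates.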

[2] = compound: C1/C(=C\C2=CC=CS2)/C(=O)/C(=C/C3=CC=CS3)/C1 + O=C(c1cc(Cc2n[nH]c(=O)c3ccccc23)ccc1F)N1CCN(C(=O)C2CC2)CC1 [Olaparib] (partner 8 µM)
Outline: as §1

[3] = compound: C1/C(=C\C2=CC=CS2)/C(=O)/C(=C/C3=CC=CS3)/C1 + C[C@]1(O)C[C@@H](c2nc(-c3ccc4ccc(-c5ccccc5)nc4c3)c3c(N)nccn32)C1 [Linsitinib] (partner 1 µM)
Outline: as §1

[4] = compound: C1=CC(=CC=C1C2=CC(=C(S2)NC(=O)N)C(=O)N)F [TPCA-1] + Cc1nc(Nc2ncc(C(=O)Nc3c(C)cccc3Cl)s2)cc(N2CCN(CCO)CC2)n1 [Dasatinib] (partner 0.075 µM)
Outline: as §1

Cell Line	relative viability ([1]; first compound 0.04 µM)	relative viability ([1]; first compound 0.1265 µM)	relative viability ([1]; first compound 0.4 µM)	relative viability ([1]; first compound 1.265 µM)	relative viability ([1]; first compound 4 µM)	relative viability ([2]; first compound 0.2 µM)	relative viability ([2]; first compound 0.6325 µM)	relative viability ([2]; first compound 2 µM)	relative viability ([2]; first compound 6.325 µM)	relative viability ([2]; first compound 20 µM)	relative viability ([3]; first compound 0.2 µM)	relative viability ([3]; first compound 0.6325 µM)	relative viability ([3]; first compound 2 µM)	relative viability ([3]; first compound 6.325 µM)	relative viability ([3]; first compound 20 µM)	relative viability ([4]; first compound 0.04 µM)	relative viability ([4]; first compound 0.1265 µM)	relative viability ([4]; first compound 0.4 µM)	relative viability ([4]; first compound 1.265 µM)	relative viability ([4]; first compound 4 µM)
HCC-15	0.862	0.705	0.915	0.863	0.779	0.784	0.771	0.707	0.656	0.66	0.899	0.921	0.846	0.734	0.888	0.735	0.495	0.592	0.523	0.392
NCI-H727	0.591	0.485	0.597	0.504	0.507	0.803	0.627	0.755		0.697	0.263	0.302	0.314	0.228	0.263	0.425	0.364	0.48	0.361	0.37
HOP-62	1.05	0.602	0.898	0.874	0.914	0.433	0.596	0.391	0.359	0.272	1.09	0.879	0.853	0.982	0.815	0.874	0.642	0.689	0.539	0.671
NCI-H3122	0.846	0.728	0.92	0.947	0.74	0.655	0.645	0.648	0.537	0.578	1.01	1.06	1.09	0.919	0.97	1.01	0.828	0.866	0.851	0.517
NCI-H1395	1.16	0.997	1.14	1.07	0.941	0.494	0.53	0.435	0.458	0.453	1.12	1.06	1.29	0.89	1.05	0.478	0.39	0.4	0.421	0.344
NCI-H647	1.35	1.04	1.23	0.834	0.562	0.776	0.482	0.433	0.501	0.573	1.27	1.36	1.03	0.969	1.17	0.21	0.15	0.231	0.0911	0.079
NCI-H650	1.11	1.02	1.02	0.633	0.859	0.575	0.425	0.376	0.378	0.423	0.96	0.86	0.896	0.903	0.803	0.464	0.436	0.409	0.321	0.332
EKVX	0.913	0.838	0.934	0.726	0.795	0.884	0.734	0.951		0.821	1.1	1.05	0.974	0.776	1	0.535	0.542	0.529	0.487	0.627
NCI-H460	0.638	0.464	0.518	0.373	0.105	0.548	0.455	0.503	0.398	0.449	0.838	0.976	0.694		0.728	0.707	0.421	0.496	0.465	0.361
LCLC-97TM1	0.249	0.241	0.223	0.248	0.187	0.459	0.389	0.344	0.275	0.347	0.183	0.169	0.187	0.158	0.197	0.94	0.679	0.772	0.658	0.717
COR-L23	0.904	0.812	0.72	0.632	0.421	0.408	0.367	0.323	0.388	0.325	0.981	0.921	0.875	0.838	0.887	0.532	0.434	0.54	0.422	0.42
NCI-H1355	0.802	0.567	0.871	0.761	0.555	0.742	0.76	0.727	0.657	0.736	0.906	0.744	0.863	0.666	0.758	0.836	0.652	0.716	0.599	0.519
NCI-H1666	1.08	0.813	0.925	1.04	0.747	0.76	0.769	0.77	0.69	0.708	0.828	0.762	0.776	0.481	0.825	0.842	0.829	0.828	0.805	0.677
EPLC-272H	1.09	0.793	1.06	0.851	0.863	0.858	0.907	0.627	0.506	0.579	1.29	1.07	1.22	1.19	1.03	0.449	0.33	0.365	0.421	0.301

— the supplement of paper PMC10307832
